Source: PubChem BioAssay AID449772 (The Scripps Research Institute Molecular Screening Center, 2010)
Active and inactive are the calls of the source.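 How the source made its calls: active means mass spectrometry shows the compound covalently bound to the catalytic cysteine of glutathione transferase omega 1; inactive means no covalent bond to that cysteine seen.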

Biological target: Glutathione S-transferase omega-1 (Homo sapiens) (UniProt P78417)
Experiment: covalent labeling of GSTO1 active site, late-stage follow-up, mechanism study, biophysical, LC-MS/MS (AID 449772)
Conditions: purified GSTO1, LC-MS/MS active-site cysteine labeling

Chain of Glutathione S-transferase omega-1 (Homo sapiens) (P78417 whole entry, looked up): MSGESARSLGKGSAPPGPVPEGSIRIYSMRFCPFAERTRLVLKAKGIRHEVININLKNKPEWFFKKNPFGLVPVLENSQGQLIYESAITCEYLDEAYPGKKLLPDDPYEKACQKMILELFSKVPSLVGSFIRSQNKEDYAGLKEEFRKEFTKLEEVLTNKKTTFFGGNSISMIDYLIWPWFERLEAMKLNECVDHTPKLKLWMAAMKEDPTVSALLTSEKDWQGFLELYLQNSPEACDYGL

Compound | outcome
O=C(NC1CCCCC1)C(c1cccnc1)N(C(=O)CCl)c1ccc(F)cc1 (configuration not stated) | active
COc1ccc(C(C(=O)NC2CCCCC2)N(C(=O)CCl)c2cccc(Cl)c2)cc1 (configuration not stated) | active
